Entries after “also recorded” stand apart in the source; their conditions may differ.

From patent publication US10604555B2, “GIP derivatives and uses thereof” (priority 2018, dated 2020) come the findings set out here.

For one data set, the target named is T1, human GIP receptor (Homo sapiens, UniProt P48546).
T1 construct: expressed in transfected cells; host or cells: BHK (parent line BHKTS13), BHK CRE luc2P hGIPR clone #5
T1 sequence (P48546 22-466): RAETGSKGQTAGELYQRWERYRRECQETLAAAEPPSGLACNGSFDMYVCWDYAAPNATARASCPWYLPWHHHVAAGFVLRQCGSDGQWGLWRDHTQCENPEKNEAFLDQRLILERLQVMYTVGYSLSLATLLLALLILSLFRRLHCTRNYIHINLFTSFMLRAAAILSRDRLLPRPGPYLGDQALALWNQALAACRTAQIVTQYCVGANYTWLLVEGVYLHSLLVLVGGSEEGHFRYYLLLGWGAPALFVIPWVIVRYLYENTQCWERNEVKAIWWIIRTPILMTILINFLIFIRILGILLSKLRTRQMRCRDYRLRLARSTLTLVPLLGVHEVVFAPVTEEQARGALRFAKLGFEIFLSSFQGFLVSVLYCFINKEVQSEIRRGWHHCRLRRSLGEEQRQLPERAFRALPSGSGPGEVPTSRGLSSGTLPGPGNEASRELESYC
Briefly: In vitro potency (CRE luciferase; whole cells), BHK CRE luc2P hGIPR. Conditions: 0.2% HSA. Type of data set: cell-based. The protocol: (§1) In Vitro Potency (CRE Luciferase; Whole Cells)
(§2) The in vitro potency is the measure of human GIP, GLP-1 or glucagon receptor activation, respectively, in a whole cell assay.
(§3) In vitro potency was determined by measuring the response of the human GIP, GLP-1 or glucagon receptor in a reporter gene assay in individual cell lines. […] When the respective receptor is activated it results in the production of cAMP, which in turn results in the luciferase protein being expressed. When assay incubation is completed the luciferase substrate (luciferin) is added and the enzyme converts luciferin to oxyluciferin to produce bioluminescence. The luminescence is measured as the readout for the assay.
(§4) The cells were derived from a clone containing the CRE luciferase element and were established by further transfection with the respective receptor to obtain the current clone.
(§5) The cells were cultured at 5% CO2 in Cell Culture Medium. They were aliquoted and stored in liquid nitrogen. The cells were kept in passage and were seeded out the day before each assay.
(§6) The Assay Buffer consisted of 1% ovalbumin and 0.1% Pluronic F-68 in Assay Medium with the addition of human serum albumin at twice the indicated concentrations.
(§7) 1) Cells were plated at 5000 cells/well and incubated overnight.
(§8) 2) Cells were washed three times in PBS.
(§9) 3) Assay Medium (50 μl aliquot) with or without serum albumin was added to each well in the assay plate.
(§10) 4) Stocks of the test compounds and reference compounds were diluted to a concentration of 0.2 μM in Assay Buffer. […] 8) The cells were washed three times with PBS plus some liquid in each well. 9) A 100 μl aliquot of steadylite plus reagent was added to each well of the assay plate (reagent was light sensitive). 10) Each assay plate was covered with aluminum foil to protect it from light and shaken for 30 min at room temperature. 11) Each assay plate was read in a microtiter plate reader. Calculations and Results
(§11) The data from the microtiter plate reader was transferred to GraphPad Prism software. The software performs a non-linear regression (log(agonist) vs response).
(§12) A minimum of two replicates was measured for each sample. The reported values are averages of the replicates.

The next data set addresses T2, human GLP-1 receptor (Homo sapiens, UniProt P43220).
T2 construct: expressed in transfected cells; host or cells: BHK (parent line BHKTS13), BHK CRE luc2P hGLP-1R clone #6
Kind of data set: In vitro potency (CRE luciferase; whole cells), BHK CRE luc2P hGLP-1R. Type of data set: cell-based. Particulars: 0.2% HSA. The protocol:
as §1, §2, §3, §4, §5, §6, §7, §8, §9, §10, §11, §12

Data set [1] in a line: ThT fibrillation assay (physical stability). The format is physicochemical. Particulars: 250 μM, pH 7.4, 37° C., 45 hours of incubation. The protocol: The Thioflavin T assay was performed as outlined in Schlein (2017), AAPS J, 19(2), 397-408.
This has traditionally been measured by visual inspection of the sample. However, that kind of measurement is very cumbersome and depending on the observer. Therefore, the application of a small molecule indicator probe is much more advantageous. Thioflavin T (ThT) is such a probe and has a distinct fluorescence signature when binding to fibrils [Naiki et al. (1989) Anal. Biochem. 177, 244-249; LeVine (1999) Methods. Enzymol. 309, 274-284].
The time course for fibril formation can be described by a sigmoidal curve with the following expression [Nielsen et al. (2001) Biochemistry 40, 6036-6046]:
Here, F is the ThT fluorescence at the time t. The constant t0 is the time needed to reach 50% of maximum fluorescence. The two important parameters describing fibril formation are the lag-time calculated by t0−2τ and the apparent rate constant kapp 1/τ.
Few of those intermediates nucleate to form a template onto which further intermediates may assembly and the fibrillation proceeds. The lag-time corresponds to the interval in which the critical mass of nucleus is built up and the apparent rate constant is the rate with which the fibril itself is formed.
Samples are prepared freshly before each assay. The drug substance was solved with 250 μM of the GIP derivative in 8 mM phosphate, 14 mg/mL propylene glycol, 58 mM phenol, pH 7.4. The pH of the sample was adjusted to the desired value using appropriate amounts of concentrated NaOH and HCl. Thioflavin T was added to the samples from a stock solution in H2O to a final concentration of 1 μM.
Sample aliquots of 200 μl were placed in each well of a 96 well microtiter plate (Packard OptiPlate™-96, white polystyrene). Four replica of each sample (corresponding to one test condition) was placed in one column of wells. The plate was sealed with Scotch Pad (Qiagen).
Incubation, shaking and measurement of the ThT fluorescence emission were done in a Fluoroskan Ascent FL fluorescence platereader (Thermo Labsystems). […] Fluorescence measurement was done using excitation through a 444 nm filter and measurement of emission through a 485 nm filter.
Each run was initiated by incubating the plate at the assay temperature for 10 min. The plate was measured every 20 minutes for a desired period of time. Between each measurement, the plate was shaken and heated as described.
After completion of the ThT assay the replica of each sample was pooled and centrifuged at 20000 rpm for 30 minutes at 18° C. The supernatant was filtered through a 0.22 μm filter and an aliquot was transferred to a HPLC vial. The concentration of the filtered sample relative to the initial sample (in percentage) was reported as the recovery.
The measurement points were saved in Microsoft Excel format for further processing and curve drawing and fitting was performed using GraphPad Prism. […] The data points were a mean of the four replica and shown with standard deviation error bars. Only data obtained in the same experiment (i.e. samples on the same plate) were presented in the same graph ensuring a relative measure of fibrillation between experiments.
The data set may be fitted to Eq. (1).

Data set [2] is described as follows: Dynamic Light Scattering Stability Index (DLS-SI). The format is physicochemical. Particulars: concentration only 5 μM instead of 250 μM; pH 7.4, 25° C.
Data set [3] in a line: Chemical stability: HMWP formation by SEC-MS. Type of data set: physicochemical. Particulars: 37° C., 4 weeks, 250 μM, pH 7.4. The protocol:
The aim of this study is to determine the chemical stability of GIP derivative compositions. As a measure of stability of the GIP derivative composition, the formation of high molecular weight peptide formation (% HMWP) as a function of time was analysed by size-exclusion chromatography (SEC-MS). Further, the purity loss of the GIP derivative compositions was measured by LCMS. Samples for chemical stability assays were freshly prepared before each assay. […] The pH of the sample was adjusted to the desired value using appropriate amounts of concentrated NaOH and HCl. […] Formation of covalent oligomers (HMWPs) was analysed and identified by a SEC-MS method. […] The LC system was coupled to both a TUV detector operated at 215 nm, 10 Hz and a high resolution QToF mass spectrometer from Waters (Synapt G2S) operated in positive ion mode and m/z range of 100 to 4000 with normal resolution setting. Lock mass correction against Leu-Enkephalin was done every 31 sec. Spectra were processed in MassLynx version 4.1 and MaxEnt deconvoluted.

Data set [4] in a line: Chemical stability: purity loss by LCMS. Type of data set: physicochemical. Particulars: 37° C., 4 weeks, 250 μM, pH 7.4. The protocol:
The aim of this study is to determine the chemical stability of GIP derivative compositions. As a measure of stability of the GIP derivative composition, the formation of high molecular weight peptide formation (% HMWP) as a function of time was analysed by size-exclusion chromatography (SEC-MS). Further, the purity loss of the GIP derivative compositions was measured by LCMS. Samples for chemical stability assays were freshly prepared before each assay. […] The pH of the sample was adjusted to the desired value using appropriate amounts of concentrated NaOH and HCl. […] The column oven was kept at 55° C. […] The solvents were pumped from a binary solvent manager system and mixed on the high pressure side in a mixer with a volume of 50 μl. The gradient and flow can be seen in table 4: [table] A Flow-through-needle auto sampler at 8° C. was used to inject 1 μl of each sample. The effluent passed through a tunable UV detector (TUV) tuned to 215 nm. The outlet from the UV detector passed to the electrospray source of the mass spectrometer. The capillary was held at 3 kV and dry nitrogen gas was purged at a flow of 750 I/h and a temperature of 250° C. The source block was kept at 120° C. and the large bore cone was flushed with nitrogen at 50 I/h with standard electrode potentials on the rest of the instrument. The MS was operated in high resolution mode with a nominal resolution of 35000. The ToF analyser was operated in ADC mode with an m/z window from 100-2000.

T2 sequence (P43220 24-463): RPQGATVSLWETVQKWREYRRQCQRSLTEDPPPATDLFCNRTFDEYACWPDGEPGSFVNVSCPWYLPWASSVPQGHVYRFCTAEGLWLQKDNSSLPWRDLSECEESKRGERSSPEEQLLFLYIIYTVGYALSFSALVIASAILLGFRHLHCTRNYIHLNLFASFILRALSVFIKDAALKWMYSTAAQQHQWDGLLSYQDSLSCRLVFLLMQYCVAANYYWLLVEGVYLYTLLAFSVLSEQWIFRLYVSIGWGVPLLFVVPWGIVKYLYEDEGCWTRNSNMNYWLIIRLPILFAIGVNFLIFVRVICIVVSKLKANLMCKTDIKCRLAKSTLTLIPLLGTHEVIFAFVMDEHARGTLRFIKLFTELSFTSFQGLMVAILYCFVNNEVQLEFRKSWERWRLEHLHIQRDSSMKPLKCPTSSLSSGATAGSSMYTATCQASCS

Consider `CCCC[C@H](NC(=O)[C@H](C)NC(=O)[C@@H](NC(=O)[C@H](CO)NC(=O)[C@H](Cc1ccc(O)cc1)NC(=O)[C@H](CC(=O)O)NC(=O)[C@H](CO)NC(=O)[C@@H](NC(=O)[C@H](Cc1ccccc1)NC(=O)[C@@H](NC(=O)CNC(=O)[C@H](CCC(=O)O)NC(=O)C(C)(C)NC(=O)[C@@H](Cc1ccc(O)cc1)NC(C)=O)[C@@H](C)O)[C@@H](C)CC)[C@@H](C)CC)C(=O)N[C@@H](CC(=O)O)C(=O)N[C@@H](CCCCN)C(=O)N[C@H](C(=O)N[C@@H](CCCNC(=N)N)C(=O)N[C@@H](CCC(N)=O)C(=O)N[C@@H](CCC(N)=O)C(=O)N[C@@H](CC(=O)O)C(=O)N[C@@H](Cc1ccccc1)C(=O)N[C@H](C(=O)N[C@@H](CCCCNC(=O)CC[C@H](NC(=O)CC[C@H](NC(=O)CC[C@H](NC(=O)CCCCCCCCCCCCCCCCC(=O)O)C(=O)O)C(=O)O)C(=O)O)C(=O)N[C@@H](Cc1c[nH]c2ccccc12)C(=O)N[C@@H](CC(C)C)C(=O)N[C@@H](CC(C)C)C(=O)N[C@@H](C)C(=O)N[C@@H](CCC(N)=O)C(=O)N[C@@H](CCCCN)C(=O)N1CCC[C@H]1C(N)=O)C(C)C)[C@@H](C)CC` [Compound 46, N{1}-acetyl,N{Epsilon-24}-[(4S)-4-carboxy-4-[[(4S)-4-carboxy-4-[[(4S)-4-carboxy-4-(17-carboxyheptadecanoylamino)butanoyl]amino]butanoyl]amino]butanoyl]-[D-Tyr1,Aib2,Nle14,Arg18,Lys24,Pro31]-hGIP(1-31) amide], for which the EC50 on human GIP receptor is 0.0212 nM; on human GLP-1 receptor, greater than 100 nM.

In the case of `CC[C@H](C)[C@H](NC(=O)[C@H](CO)NC(=O)[C@H](Cc1ccc(O)cc1)NC(=O)[C@H](CC(=O)O)NC(=O)[C@H](CO)NC(=O)[C@@H](NC(=O)[C@H](Cc1ccccc1)NC(=O)[C@@H](NC(=O)CNC(=O)[C@H](CCC(=O)O)NC(=O)[C@H](C)NC(=O)[C@@H](N)Cc1ccc(O)cc1)[C@@H](C)O)[C@@H](C)CC)C(=O)N[C@@H](C)C(=O)N[C@@H](CCSC)C(=O)N[C@@H](CC(=O)O)C(=O)N[C@@H](CCCCN)C(=O)N[C@H](C(=O)N[C@@H](Cc1c[nH]cn1)C(=O)N[C@@H](CCC(N)=O)C(=O)N[C@@H](CCC(N)=O)C(=O)N[C@@H](CC(=O)O)C(=O)N[C@@H](Cc1ccccc1)C(=O)N[C@H](C(=O)N[C@@H](CC(N)=O)C(=O)N[C@@H](Cc1c[nH]c2ccccc12)C(=O)N[C@@H](CC(C)C)C(=O)N[C@@H](CC(C)C)C(=O)N[C@@H](C)C(=O)N[C@@H](CCC(N)=O)C(=O)N[C@@H](CCCCN)C(=O)NCC(=O)O)C(C)C)[C@@H](C)CC` [hGIP(1-31), reference compound], at human GIP receptor, the midpoint of the response, the EC50, lay at 0.00224 nM. Also, the “ThT Assay Lag time” value in data set [1] is given as 0 h. Moreover, in data set [2], the DLS-SI precipitates entry is recorded as “visible as precipitation; also recorded: Yes^##”. Also, the “HMWP formation (%/month)” value in data set [3] came to 0.15 %/month. Further, the “Purity loss (%/month)” value in data set [4] came to 86.9 %/month.
